Data: patent EP4603105A1, “PHARMACEUTICAL COMPOSITION CONTAINING CYCLIC COMPOUND HAVING SELECTIVE KRAS INHIBITORY EFFECT AGAINST HRAS AND NRAS” (CHUGAI SEIYAKU KABUSHIKI KAISHA, priority 2022, dated 2024)
*1 amine or outer side, *2 acyl side, *3 side chain or, on linkers, in order; H or OH if unused. Where a SMILES comes first, the peptide text is derived from it. Bridges are numbered along the chain shown (N, C = ends). [ ]: non-standard residue; d: D form. The star is where a group is joined. hPhe(3,5-F2-4-CF3) = N[C@@H](CCc1cc(F)c(C(F)(F)F)c(F)c1)C(=O)O; X23 = O=C([C@H](Cc1ccc(C(F)(F)F)cc1)N(CC1CCCC1)[*:1])[*:2]; hPhe(3-Cl-4-CF3) = N[C@@H](CCc1ccc(C(F)(F)F)c(Cl)c1)C(=O)O; NPrPhe(4-CF3) = CCCN[C@@H](Cc1ccc(C(F)(F)F)cc1)C(=O)O; X28 = Cc1ccc(C[C@@H](C(=O)[*:2])N(CC2CCCCC2)[*:1])cc1; NMeAbu(4,4,4-F3) = CN[C@@H](CC(F)(F)F)C(=O)O; NMeGly(cPent) = CN[C@H](C(=O)O)C1CCCC1; Hyp = O=C(O)[C@@H]1C[C@@H](O)CN1; NMeD = CN[C@@H](CC(=O)O)C(=O)O; NMeL = CN[C@@H](CC(C)C)C(=O)O; Morpholide = C1CN(*)CCO1; NMeA = CN[C@@H](C)C(=O)O; Ac5c = NC1(C(=O)O)CCCC1; Aze = O=C(O)[C@@H]1CCN1; NEtG = CCNCC(=O)O; Sar = CNCC(=O)O

Experiments:
[1] = test system: human lung cancer strain NCI-H441; type: cell-based
Method in brief: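 Readout: […] after the ATP-based reagent. Compound: serial dilutions in dimethyl sulfoxide.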

[2] = target: GDP-bound NRAS wild-type protein (Homo sapiens, UniProt P01111); assay: Binding to NRAS by surface plasmon resonance (SPR), KD and KD ratio to KRAS
Method in brief: (§1)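 Affinity is measured by surface plasmon resonance at 30°C against captured, GDP-loaded RAS carrying a biotinylated Avi tag. Compounds are titrated by single-cycle kinetics, and KD comes from a 1:1 fit.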

HRAS wild-type protein = HRAS wild-type protein (Homo sapiens, UniProt P01112); assay: Binding to HRAS by surface plasmon resonance (SPR), KD and KD ratio to KRAS
Method in brief: as §1

[3] = ratio of KD for GDP-bound NRAS wild-type protein to KD for KRAS
[4] = ratio of KD for HRAS wild-type protein to KD for KRAS
[5] = ratio of KD with respect to GDP-bound NRAS wild-type protein to KD with respect to KRAS
[6] = ratio of KD with respect to HRAS wild-type protein to KD with respect to KRAS
[7] = ratio of the KD value with respect to GDP-bound NRAS wild-type protein to the KD value with respect to KRAS
[8] = ratio of the KD value with respect to HRAS wild-type protein to the KD value with respect to KRAS

HRAS wild-type protein, sequence (P01112 whole entry): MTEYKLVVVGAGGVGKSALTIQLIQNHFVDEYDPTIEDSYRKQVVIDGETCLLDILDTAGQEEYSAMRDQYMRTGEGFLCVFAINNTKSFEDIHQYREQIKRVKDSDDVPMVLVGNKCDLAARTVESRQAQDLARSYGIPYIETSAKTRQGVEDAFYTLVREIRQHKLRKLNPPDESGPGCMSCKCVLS
GDP-bound NRAS wild-type protein, sequence (P01111 whole entry): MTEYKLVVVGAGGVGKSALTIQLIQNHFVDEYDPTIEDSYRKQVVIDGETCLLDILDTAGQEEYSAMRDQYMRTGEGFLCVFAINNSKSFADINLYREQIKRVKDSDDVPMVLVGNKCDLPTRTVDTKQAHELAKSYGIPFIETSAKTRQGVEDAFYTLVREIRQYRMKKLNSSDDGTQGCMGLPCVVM

IC50 [1] [nM]	SMILES	NRAS /KRAS [2, 3]	HRAS /KRAS (HRAS wild-type protein; [4])	also measured
20.6	CCCN(C)C(=O)[C@@H]1CC(=O)N(C)[C@@H](COC)C(=O)N[C@@H]([C@@H](C)CC)C(=O)N(C)CC(=O)N(C)[C@H]2C/C=C\CCN(C2=O)[C@@H](Cc2ccc(C(F)(F)F)cc2)C(=O)N(C)CC(=O)N[C@@H](CCc2cc(F)c(C(F)(F)F)c(F)c2)C(=O)N2CCC[C@H]2C(=O)NC2(CC(C)(C)C2)C(=O)N(C)[C@@H](C2CCCC2)C(=O)N1C [PP1729]	–	–	NRAS /KRAS ([2]; ratio of KD value for GDP-bound NRAS wild-type protein to KD value for KRAS (SPR)): AA (a compound having 20 or more is denoted as AA); HRAS /KRAS (HRAS wild-type protein; ratio of KD value for HRAS wild-type protein to KD value for KRAS (SPR)): A (a compound having 10 or more and less than 20 is denoted as A)
61.3	C#CC[C@H]1C(=O)N[C@@H]([C@@H](C)CC)C(=O)N(C)CC(=O)N(C)[C@H]2C/C=C\CCN(C2=O)[C@@H](Cc2ccc(C(F)(F)F)cc2)C(=O)N(C)CC(=O)N[C@@H](CCc2ccc(C(F)(F)F)c(OC)c2)C(=O)N2CC[C@H]2C(=O)NC2(CC(C)(C)C2)C(=O)N(C)[C@@H](C2CCCC2)C(=O)N(C)[C@H](C(=O)N(C)C)CC(=O)N1C [PP2909]	B (a compound having 3 or more and less than 10 is denoted as B)	B (a compound having 3 or more and less than 10 is denoted as B)	–
9.5	CCO[C@@H]1C[C@H]2C(=O)NC3(CCC3)C(=O)N(C)[C@@H](C3CCCC3)C(=O)N(C)[C@H](C(=O)N(C)CC)CC(=O)N(C)[C@@H](CC(C)C)C(=O)N[C@@H]([C@@H](C)CC)C(=O)N(C)CC(=O)N(C)[C@H]3C/C=C\CCN(C3=O)[C@@H](Cc3ccc(C(F)(F)F)cc3)C(=O)N(C)CC(=O)N[C@@H](CCc3cc(F)c(C(F)(F)F)c(F)c3)C(=O)N2C1 [PP1300]	–	–	NRAS /KRAS [2, 5]: A (a compound having 10 or more and less than 20 is denoted as A); HRAS /KRAS (HRAS wild-type protein; [6]): A (a compound having 10 or more and less than 20 is denoted as A)
5.4	CCO[C@@H]1C[C@H]2C(=O)NC3(CCC3)C(=O)N(C)[C@@H](C3CCCC3)C(=O)N(C)[C@H](C(=O)N(C)C)CC(=O)N(C)[C@@H](CC(C)C)C(=O)N[C@@H]([C@@H](C)CC)C(=O)N(C)CC(=O)N(C)[C@H]3C/C=C\CCN(C3=O)[C@@H](Cc3ccc(C(F)(F)F)cc3)C(=O)N(C)CC(=O)N[C@@H](CCc3cc(F)c(C(F)(F)F)c(F)c3)C(=O)N2C1 [PP1107]	A (a compound having 10 or more and less than 20 is denoted as A)	A (a compound having 10 or more and less than 20 is denoted as A)	–
4.9	CCC[C@H]1C(=O)N[C@@H]([C@@H](C)CC)C(=O)N2CCC[C@H]2C(=O)N(C)[C@H]2C/C=C\CCN(C2=O)[C@@H](Cc2ccc(C(F)(F)F)cc2)C(=O)N(C)CC(=O)N[C@@H](CCc2ccc(C(F)(F)F)c(OC)c2)C(=O)N2C[C@H](OCC)C[C@H]2C(=O)N(C)C2(CCC2)C(=O)N(C)[C@@H](C2CCCC2)C(=O)N(C)[C@H](C(=O)N2CCCC2)CC(=O)N1C [PP3101]	A (a compound having 10 or more and less than 20 is denoted as A)	A (a compound having 10 or more and less than 20 is denoted as A)	–
6.6	CCCN(C)C(=O)[C@@H]1CC(=O)N(C)[C@@H](CC(F)F)C(=O)N[C@@H]([C@@H](C)CC)C(=O)N(C)CC(=O)N(C)[C@H]2C/C=C\CCN(C2=O)[C@@H](Cc2ccc(C(F)(F)F)cc2)C(=O)N(C)CC(=O)N[C@@H](CCc2ccc(C(F)(F)F)c(OC)c2)C(=O)N2C[C@H](OCC)C[C@H]2C(=O)NC2(CC(C)(C)C2)C(=O)N(C)[C@@H](C2CCCC2)C(=O)N1C [PP2010]	–	–	NRAS /KRAS [2, 7]: A (a compound having 10 or more and less than 20 is denoted as A); HRAS /KRAS (HRAS wild-type protein; [8]): B (a compound having 3 or more and less than 10 is denoted as B)
6.2	CC[C@H](C)[C@@H]1NC(=O)[C@H](C2CCC2)N(C)C(=O)C[C@@H](C(=O)N(C)CC)N(C)C(=O)[C@H](C2CCCC2)N(C)C(=O)C2(CCC2)NC(=O)[C@@H]2C[C@H](C)CN2C(=O)[C@H](CCc2ccc(C(F)(F)F)c(OC)c2)NC(=O)CN(C)C(=O)[C@H](Cc2ccc(C(F)(F)F)cc2)N2CC/C=C\C[C@@H](C2=O)N(C)C(=O)CN(C)C1=O [PP2071]	–	–	NRAS /KRAS [2, 7]: A (a compound having 10 or more and less than 20 is denoted as A); HRAS /KRAS (HRAS wild-type protein; [8]): A (a compound having 10 or more and less than 20 is denoted as A)
3.3	C#CC[C@H]1C(=O)N[C@@H]([C@@H](C)CC)C(=O)N(C)CC(=O)N(C)[C@H]2CCCCN(C2=O)[C@@H](Cc2ccc(C(F)(F)F)cc2)C(=O)N(C)CC(=O)N[C@@H](CCc2cc(F)c(C(F)(F)F)c(F)c2)C(=O)N2C[C@H](OCC)C[C@H]2C(=O)NC2(CCC2)C(=O)N(C)[C@@H](C2CCCC2)C(=O)N(C)[C@H](C(=O)N(C)C)CC(=O)N1C [PP0696]	–	–	NRAS /KRAS [2, 7]: B (a compound having 3 or more and less than 10 is denoted as B); HRAS /KRAS (HRAS wild-type protein; [8]): B (a compound having 3 or more and less than 10 is denoted as B)
12.4	CCO[C@@H]1C[C@H]2C(=O)NC3(CCC3)C(=O)N(C)[C@@H](C3CCCC3)C(=O)N(C)[C@H](C(=O)N(C)CCOC)CC(=O)N(C)[C@@H](CC3CC3)C(=O)N[C@@H]([C@@H](C)CC)C(=O)N(C)CC(=O)N(C)[C@H]3C/C=C\CCN(C3=O)[C@@H](Cc3ccc(C(F)(F)F)cc3)C(=O)N(C)CC(=O)N[C@@H](CCc3ccc(C(F)(F)F)c(OC)c3)C(=O)N2C1 [PP1327]	–	–	NRAS /KRAS [2, 5]: A (a compound having 10 or more and less than 20 is denoted as A); HRAS /KRAS (HRAS wild-type protein; [6]): A (a compound having 10 or more and less than 20 is denoted as A)

Further lines, the compound ahead of its results:

SMILES	IC50 [1] [nM]	NRAS /KRAS [2, 3]	HRAS /KRAS (HRAS wild-type protein; [4])	also measured
CC[C@H](C)[C@@H]1NC(=O)[C@H](CC(C)C)N(C)C(=O)C[C@@H](C(=O)N2CCOCC2)N(C)C(=O)[C@H](C2CCCC2)N(C)C(=O)C2(CCCC2)NC(=O)[C@@H]2CCCN2C(=O)[C@H](CCc2ccc(C(F)(F)F)c(Cl)c2)NC(=O)CN(C)C(=O)[C@H](Cc2ccc(C(F)(F)F)cc2)N(CC2CCCC2)C(=O)CN(C)C(=O)CN(C)C1=O [PP0124] ([NMeL]I[Sar][Sar][X23][Sar][hPhe(3-Cl-4-CF3)]P[Ac5c][NMeGly(cPent)][NMeD]-Morpholide; lactam N-11)	48.8	C (A compound having a KD ratio of 0.1 or more and less than 3 is denoted as C)	C (A compound having a KD ratio of 0.1 or more and less than 3 is denoted as C)	–
CC[C@H](C)[C@@H]1NC(=O)[C@H](CC(C)C)N(C)C(=O)C[C@@H](C(=O)N2CCOCC2)N(C)C(=O)[C@H](C2CCCC2)N(C)C(=O)C2(CCCC2)NC(=O)[C@@H]2CCCN2C(=O)[C@H](CCc2ccc(C(F)(F)F)c(Cl)c2)NC(=O)CN(C)C(=O)[C@H](Cc2ccc(C)cc2)N(CC2CCCCC2)C(=O)[C@@H]2CCN2C(=O)[C@H](C)N(C)C1=O [PP0085] ([NMeL]I[NMeA][Aze][X28][Sar][hPhe(3-Cl-4-CF3)]P[Ac5c][NMeGly(cPent)][NMeD]-Morpholide; lactam N-11)	108	C (A compound having a KD ratio of 0.1 or more and less than 3 is denoted as C)	C (A compound having a KD ratio of 0.1 or more and less than 3 is denoted as C)	–
CCCN1C(=O)CN(C)C(=O)CN(C)C(=O)[C@H]([C@@H](C)CC)NC(=O)[C@H](CC(C)C)N(C)C(=O)C[C@@H](C(=O)N2CCOCC2)N(C)C(=O)[C@H](CC(F)(F)F)N(C)C(=O)C2(CCCC2)NC(=O)[C@@H]2CCCN2C(=O)[C@H](CCc2cc(F)c(C(F)(F)F)c(F)c2)NC(=O)CN(C)C(=O)[C@@H]1Cc1ccc(C(F)(F)F)cc1 [PP0767] ([NMeL]I[Sar][Sar][NPrPhe(4-CF3)][Sar][hPhe(3,5-F2-4-CF3)]P[Ac5c][NMeAbu(4,4,4-F3)][NMeD]-Morpholide; lactam N-11)	158	B (a compound having 3 or more and less than 10 is denoted as B)	C (A compound having a KD ratio of 0.1 or more and less than 3 is denoted as C)	–
CC[C@H](C)[C@@H]1NC(=O)[C@H](CC(C)C)N(C)C(=O)C[C@@H](C(=O)N2CCOCC2)N(C)C(=O)[C@H](C2CCCC2)N(C)C(=O)C2(CCC2)NC(=O)[C@@H]2[C@H](OC)CCN2C(=O)[C@H](CCc2cc(F)c(C(F)(F)F)c(F)c2)NC(=O)CN(C)C(=O)[C@H](Cc2ccc(C(F)(F)F)cc2)N2CCCCC[C@@H](C2=O)N(C)C(=O)CN(C)C1=O [PP1085]	590	A (a compound having 10 or more and less than 20 is denoted as A)	A (a compound having 10 or more and less than 20 is denoted as A)	–
CCCN1C(=O)CN(C)C(=O)CN(CC)C(=O)[C@H]([C@@H](C)CC)NC(=O)[C@H](CC(C)C)N(C)C(=O)C[C@@H](C(=O)N(C)C)N(C)C(=O)[C@H](C2CCCC2)N(C)C(=O)C2(CCCC2)NC(=O)[C@@H]2C[C@@H](OCC)CN2C(=O)[C@H](CCc2ccc(C(F)(F)F)c(Cl)c2)NC(=O)CN(C)C(=O)[C@@H]1Cc1ccc(C(F)(F)F)cc1 [PP0427] ([NMeL]I[NEtG][Sar][NPrPhe(4-CF3)][Sar][hPhe(3-Cl-4-CF3)][Hyp](Et)[Ac5c][NMeGly(cPent)][NMeD]-NMe2; lactam N-11)	2.2	–	–	NRAS /KRAS [2, 7]: B (a compound having 3 or more and less than 10 is denoted as B); HRAS /KRAS (HRAS wild-type protein; [8]): C (A compound having a KD ratio of 0.1 or more and less than 3 is denoted as C)
CCO[C@@H]1C[C@H]2C(=O)NC3(CCC3)C(=O)N(C)[C@@H](C3CCCC3)C(=O)N(C)[C@H](C(=O)N(C)C)CC(=O)N(C)[C@@H](CC3CCCC3)C(=O)N[C@@H]([C@@H](C)CC)C(=O)N(C)CC(=O)N(C)[C@H]3C/C=C\CCN(C3=O)[C@@H](Cc3ccc(C)cc3)C(=O)N(C)CC(=O)N[C@@H](CCc3cc(F)c(CC)c(OC)c3)C(=O)N2C1 [PP2674]	48.6	A (a compound having 10 or more and less than 20 is denoted as A)	A (a compound having 10 or more and less than 20 is denoted as A)	–
